In US20230203023A1, “SALT AND CRYSTAL FORMS OF GLP-1R AGONISTS AND USES THEREOF” (QILU REGOR THERAPEUTICS INC., priority 2020, published 2023):
In brackets after ≈: the same amount, converted by molar mass. Like-named read-outs stand apart in the source and are kept apart here.

Legend:
[1] = Kinetic solubility test in water and bio-relevant media (SGF, FaSSIF, FeSSIF); type: physicochemical; details: for solubility at 1 h: 37 °C, thermodynamic from solid, read-out: S: solubility; for solubility at 1 h / S: solubility: 37° C.; for Purity (%), area percentage of API: for reference only (suspensions); for FC: form change: residual solids by XRPD; for pH: supernatant
Description: (§1) Weigh 100 mg of sodium chloride and 50 mg of Triton X-100 into a 50-mL volumetric flask. Add appropriate volume of purified water and sonicate until all solids are completely dissolved. Add about 68 μL of 12 M HCl and sufficient purified water closely to the target volume and adjust to pH 1.8. Dilute to volume with purified water, mix well and check the pH with a pH meter.
as §1, with “170” for “100”, “phosphate monobasic, 21” for “chloride and 50”, “sodium hydroxide and 310 mg of sodium chloride, 110 mg of SIF powder” for “Triton X-100”, “Add” for “Add about 68 μL of 12 M HCl and”, “6.5.” for “1.8.”
Weigh 0.41 mL of glacial acetic acid, 202 mg of sodium hydroxide and 594 mg of sodium chloride, 560 mg of SIF powder into a 50-mL volumetric flask. Add appropriate volume of purified water to dissolve the solids. Then add sufficient purified water closely to the target volume and adjust to pH 5.0. Dilute to volume with purified water, mix well and check the pH with a pH meter.
Kinetic solubility was evaluated in water and three bio-relevant media (SGF, FaSSIF and FeSSIF) for 1/4/24 hours. 3-4 mg of solids were suspended in 3 mL each medium (solid loading: 1 mg/mL, calculated using freeform) to get a suspension, followed by rolling (25 rpm) at 37° C. for 1/4/24 hours. At each time point, ˜1.0 mL of suspension was sampled out for centrifugation (12000 rpm, 2 min) and filtration through 0.45 μm PTFE membrane to obtain supernatant for HPLC and pH tests, the residual solids were analyzed by XRPD.
Kinetic solubility was evaluated for 1:1 Compound II Citrate Salt (Form A), 1:1 Compound II Tris Salt (Form B), and freeform of Compound II in water and three bio-relevant media (SGF, FaSSIF and FeSSIF) for 1/4/24 hours. 3-4 mg of solids were suspended in 3 mL each medium (solid loading:
1 mg/mL, calculated using freeform) to get a suspension, followed by rolling (25 rpm) at 37° C. for 1/4/24 hours. At each time point, ˜1.0 mL of suspension was sampled out for centrifugation (12000 rpm, 2 min) and filtration through 0.45 μm PTFE membrane to obtain supernatant for HPLC and pH tests, the residual solids were analyzed by XRPD. […] The purity results were for reference only since the samples were all suspensions.

[2] = Solid stability evaluation (I/II), XRPD and HPLC; type: physicochemical; details: for Purity (area %): listed as Amorphous Free form
Description: To evaluate the physical and chemical stability of 1:1 Compound I Tris Salt (Form A) and amorphous free form, samples were stored under the conditions of 60° C. for 1 day and 25° C./60% RH or 40° C./75% RH for 1 week, respectively.
To evaluate the physical and chemical stability of 1:1 Compound II Citrate Salt (Form A), 1:1 Compound II Tris Salt (Form B) and freeform, samples were stored under the conditions of 60° C. for 1 day and 25° C./60% RH or 40° C./75% RH for 1 week, respectively.

[3] = FaSSIF, 4 hours, listed as Free form amorphous
[4] = FaSSIF, 24 hours, listed as Free form amorphous
[5] = FeSSIF, 1 hour, listed as Free form amorphous
[6] = FeSSIF, 4 hours, listed as Free form amorphous
[7] = FeSSIF, 24 hours, listed as Free form amorphous
[8] = H2O, 1 hour, listed as Free form amorphous
[9] = H2O, 4 hours, listed as Free form amorphous
[10] = H2O, 24 hours, listed as Free form amorphous
[11] = SGF, 1 hour, listed as Free form amorphous
[12] = SGF, 4 hours, listed as Free form amorphous
[13] = SGF, 24 hours, listed as Free form amorphous

## O=C(O)c1ccc2nc(CN3CC=C(c4cccc(OCc5ccc(Cl)cc5F)c4)CC3)n(C[C@@H]3CCO3)c2c1 [Compound I, (S)-2-((4-(3-((4-chloro-2-fluorobenzyl)-oxy)phenyl)-3,6-dihydropyridin-1(2H)-yl)methyl)-1-(oxetan-2-ylmethyl)-1H-benzo[d]-imidazole-6-carboxylic acid]
[1]; FaSSIF, pH 6.5, fassif, FaSSIF, 1 hour
  solubility at 1 h: 200 µg/mL (≈ 356 µM)
[1]; FaSSIF, 1 hour, listed as Free form amorphous
  Purity (%), area percentage of API: 93.54%
[1]; [3]
  S: solubility: 0.08 mg/mL
  pH: 6.5
[1]; FaSSIF, 4 hours
  Purity (%), area percentage of API: 49.59%
  FC: form change: No
[1]; [4]
  S: solubility: 0.04 mg/mL
  Purity (%), area percentage of API: 63.24%
  FC: form change: Yes
  pH: 6.4
[1]; FeSSIF, pH 5, fessif, FeSSIF, 1 hour
  solubility at 1 h: 400 µg/mL (≈ 712 µM)
[1]; [5]
  Purity (%), area percentage of API: 94.78%
  pH: 5.0
[1]; [6]
  S: solubility: 0.5 mg/mL
  Purity (%), area percentage of API: 91.80%
[1]; [7]
  S: solubility: 0.4 mg/mL
  Purity (%), area percentage of API: 77.57%
[1]; [8]
  S: solubility: 0.03 mg/mL
  Purity (%), area percentage of API: 100.00%
  pH: 8.4
[1]; [9]
  S: solubility: 0.02 mg/mL
  Purity (%), area percentage of API: 87.13%
  pH: 7.3
[1]; [10]
  S: solubility: <LOQ
  Purity (%), area percentage of API: 9.97%
  pH: 6.8
[1]; SGF, 1 hour
  S: solubility: 0.4 mg/mL
[1]; [11]
  Purity (%), area percentage of API: 93.07%
  FC: form change: No
[1]; [12]
  S: solubility: 0.6 mg/mL
  Purity (%), area percentage of API: 94.02%
  FC: form change: No
  pH: 1.9
[1]; [13]
  S: solubility: 0.8 mg/mL
  Purity (%), area percentage of API: 91.48%
  FC: form change: No
[1]; FaSSIF, 1 hour
  FC: form change: No
  pH: 6.5
[1]; FeSSIF, 1 hour
  FC: form change: No
[1]; FeSSIF, 4 hours
  FC: form change: No
  pH: 5.0
[1]; FeSSIF, 24 hours
  FC: form change: No
  pH: 5.0
[1]; H2O, 1 hour
  FC: form change: No
[1]; H2O, 4 hours
  FC: form change: No
[1]; H2O, 24 hours
  FC: form change: No
[2]; 25° C./60% RH (open), 1 week
  Form change: No
  Observation: Yellowish
  Purity (area %): 93.06 area %
[2]; 40° C./75% RH (open), 1 week
  Purity (area %): 89.59 area %
[2]; 60° C. (capped), 1 day
  Form change: No
  Observation: Yellowish
  Purity (area %): 86.88 area %
[2]; Initial
  Form change: No
  Observation: White powder
  Purity (area %): 94.71 area %
